Source: patent US7517857B2, “Immune-modulating peptide” (POSCO, priority 2002, dated 2009)
Where a SMILES comes first, the peptide text is derived from it. [ ]: non-standard residue; d: D form.

How the values were obtained:
CT26, colon carcinoma = test: Tumor growth in CT26-injected Balb/c mice; assay type: in vivo
Method: (§1) CT26, EL4 were maintained at 37° C. in a humidified 5% CO2 atmosphere in RPMA1640 medium supplemented with 20% (vol/vol) heat-inactivated fetal bovine serum. For animal experiments, the cells were passaged two to five times after re-growth from frozen stocks. Log phase CT26 cells were detached from tissue culture flasks with 0.25% trypsin and 0.03% EDTA. CT26 and EL4 were washed and resuspended in PBS immediately before injection.
In order to assess the antitumor effect of immuno-modulating peptide, Trp-Arg-Tyr-Met-Val-D-Met-CONH2, (WRYMVm; (SEQ ID NO: 4)), CT26, colon carcinoma was tested in Balb/c mice model. Tumor mass was measured in size every two days after 6 days from tumor cell inoculation.
To find the effective tumor-suppressing dose of WRYMVm, 0.1 μg/mouse, 0.25 μg/mouse, and 1 μg/mouse of WRYMVm were administered to CT26/Balb/c model. […] A similar phenomenon is easily found in chemotactic migration of leukocytes. In view of the fact that FPRL1, which is a target receptor for WRYMVm, is related to the chemotactic migration event, it is concluded that WRYMVm-induced antitumor effect might be derived from leukocyte infiltration event. Therefore, it is quite necessary to reveal the direct relationship between the WRYMVm-induced antitumor effect and the leukocyte infiltration event.

FPR [1] = target: T1, FPR (Homo sapiens, UniProt P21462); test: Exocytosis: β-hexosaminidase secretion in FPR-expressing RBL-2H3 cells; assay type: cell-based; details: FPR cells; 10 μM BAPTA/AM prior to 1 μM WKYMVm
T1 construct: expressed in transfected cells; host or cells: RBL-2H3 (rat basophilic leukemia) cells, G418-selected
T1 sequence (P21462 1-350): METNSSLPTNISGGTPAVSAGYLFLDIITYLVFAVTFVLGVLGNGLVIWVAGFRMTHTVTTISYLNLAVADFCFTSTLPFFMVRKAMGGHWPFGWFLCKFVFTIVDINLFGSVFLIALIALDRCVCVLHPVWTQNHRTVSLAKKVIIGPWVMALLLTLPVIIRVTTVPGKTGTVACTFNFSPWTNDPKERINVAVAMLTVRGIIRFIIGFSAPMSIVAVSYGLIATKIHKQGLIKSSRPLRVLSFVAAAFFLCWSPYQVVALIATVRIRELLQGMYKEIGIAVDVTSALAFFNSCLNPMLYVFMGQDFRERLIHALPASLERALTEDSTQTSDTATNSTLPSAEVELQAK
Method: (§2) Granule secretion is one of the most important function of mast cells (20). The effect of WKYMVm on granule secretion was checked by measuring β-hexosaminidase secretion as described above (18). Briefly, RBL-2H3 cells (2×10^5/well) expressing FPR or FPRL1 were cultured overnight in a 24-well tissue culture plate. The cells were washed twice with Tyrode's buffer (137 mM NaCl, 12 mM NaHCO3, 5.6 mM glucose, 2.7 mM KCl, 1 mM CaCl2, 0.5 mM MgCl2, 0.4 mM NaH2PO4, 0.1g/100 ml BSA, and 25 mM HEPES, pH 7.4) and stimulated with each peptide. Various concentrations of WKYMVm were treated in FPR- or FPRL1-expressing RBL-2H3 cells (FIG. 5A). 1 μM of WKYMVm was used to stimulate two cell lines in the absence or presence of 10 μM BAPTA/AM (FIG. 5B). The reaction was terminated 20 min after stimulation by placing the plate on ice. Secretion of β-hexosaminidase into the medium was determined by incubating 50 μl of supernatant or cell lysate with 25 μl of 5 mM p-nitrophenyl-N-acetyl-β-D-glucosamide in 0.1 M sodium citrate buffer (pH 3.8) at 37° C. for 2 hr. At the end of the incubation, 50 μl of 0.4 M Na2CO3 were added. Absorbance was monitored at 405 nm. Data are means ±S.E. of a single representative of three experiments performed in triplicate. Values (means ±S.E.) were expressed as a percent of total β-hexosaminidase present in the cells.
From the new finding that cytosolic calcium release was induced by WKYMVm and many of the substituted peptides of WKYMVm but not by some of them (WKGMVm (SEQ ID NO: 1), WKRMVm (SEQ ID NO: 11), D-Met^6 substituted peptides), the effect of the peptides on granule secretion in RBL cells was checked. 10 μM of each peptide was treated in FPR- (FIG. 6A) or FPRL1-expressing RBL-2H3 cells (FIG. 6B). The peptide-induced secretion of β-hexosaminidase was determined as above. Data are means ±S.E. of a single representative of three experiments performed in triplicate.

FPR [2] = target: T1, FPR; test: ERK phosphorylation in FPR-expressing RBL-2H3 cells (immunoblot); assay type: cell-based; details: pretreatment prior to 1 μM WKYMVm, PTX 100 ng/ml, LY294002 50 μM, GFX 5 μM, BAPTA/AM 10 μM, PD98059 50 μM
Method: (§3) Cultured RBL-2H3 cells were aliquoted into 2×10^6 cells and stimulated with the indicated concentrations of WKYMVm and the peptides of the present invention for the indicated lengths of time. FPR- or FPRL1-expressing RBL-2H3 cells were stimulated with 1 μM WKYMVm for various periods of time (FIG. 3A). Two cells were preincubated with a vehicle or 100 ng/ml of PTX (24 hr), 50 μM of LY294002 (15 min), 5 μM of GFX (15 min), 10 μM BAPTA/AM (60 min), or 50 μM PD98059 (60 min) prior to 1 μM of WKYMVm treatment (FIG. 3B). FPR- or FPRL1-expressing RBL2H3 cells were stimulated with 10 μM of the peptides of the present invention for 2 min or 5 min, respectively (FIG. 3C).
(§4) After stimulation, the cells were washed with serum-free RPMI and lysed in a lysis buffer (20 mM Hepes, pH 7.2, 10% glycerol, 150 mM NaCl, 1% Triton X-100, 50 mM NaF, 1 mM Na3VO4, 10 μg/ml leupeptin, 10 μg/ml aprotinin, and 1 mM phenylmethylsulfonyl fluoride). The detergent-insoluble materials were pelleted by centrifugation (12,000×g, 15 min, at 4° C.), and the soluble supernatant fraction was removed and stored at −80° C. or used immediately. Protein concentrations in the lysates were determined using the Bradford protein assay reagent.
(§5) Each sample ([…] of protein) was subjected to 10% SDS-PAGE and phosphorylated ERK was determined by an immunoblot analysis with an anti-phospho-ERK antibody. Protein samples were prepared for electrophoresis by addition of a concentrated sample buffer. The portions in the samples were then separated by an 10% SDS-polyacrylamide gel using the buffer system described by Laemmli (17).
(§6) Following the electrophoresis, a western blot analysis with an anti-ERK2 antibody was performed to confirm that the same amounts of samples were used for the experiments. The proteins were blotted onto nitrocellulose membranes. The nitrocellulose membranes were then blocked by incubation with TBS (Tris-buffered saline, 0.05% Tween-20) containing 5% non-fat dry milk. Subsequently, the membranes were incubated with anti-phospho-ERK antibody, anti-phospho-Akt antibody or anti-Akt antibody washed with TBS. For a PKC translocation assay, an antibody for PKC isozyme-specific was incubated. Antigen-antibody complexes were visualized after incubating the membrane with a 1:5000 diluted goat anti-rabbit IgG or goat anti-mouse IgG antibody coupled to horseradish peroxidase and using the enhanced chemiluminescence detection system.

FPRL1 [3] = target: T2, FPRL1 (Homo sapiens, UniProt P25090); test: Exocytosis: β-hexosaminidase secretion in FPRL1-expressing RBL-2H3 cells; assay type: cell-based; details: FPRL1 cells; 10 μM BAPTA/AM prior to 1 μM WKYMVm
T2 construct: expressed in transfected cells; host or cells: RBL-2H3 (rat basophilic leukemia) cells, G418-selected
T2 sequence (P25090 1-351): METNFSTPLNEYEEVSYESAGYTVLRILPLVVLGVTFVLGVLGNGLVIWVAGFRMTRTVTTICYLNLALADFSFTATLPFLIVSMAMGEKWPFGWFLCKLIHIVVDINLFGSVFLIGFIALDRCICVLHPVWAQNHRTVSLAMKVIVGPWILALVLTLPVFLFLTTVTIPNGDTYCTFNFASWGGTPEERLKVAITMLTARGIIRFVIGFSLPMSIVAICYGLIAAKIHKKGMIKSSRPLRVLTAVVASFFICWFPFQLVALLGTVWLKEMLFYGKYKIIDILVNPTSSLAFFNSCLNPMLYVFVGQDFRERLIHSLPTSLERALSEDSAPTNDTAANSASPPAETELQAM
Method: as §2
10 μM of each peptide was treated in FPR- (FIG. 6A) or FPRL1-expressing RBL-2H3 cells (FIG. 6B). The peptide-induced secretion of β-hexosaminidase was determined as above. Data are means ±S.E. of a single representative of three experiments performed in triplicate.

FPRL1 [4] = target: T2, FPRL1; test: ERK phosphorylation in FPRL1-expressing RBL-2H3 cells (immunoblot); assay type: cell-based; details: pretreatment prior to 1 μM WKYMVm, PTX 100 ng/ml, LY294002 50 μM, GFX 5 μM, BAPTA/AM 10 μM, PD98059 50 μM
Method: as §3, §4, §5, §6

human neutrophils = test: Superoxide generation in human neutrophils (cytochrome c reduction); assay type: cell-based; details: for O^2− (nmol/10^6 cells), superoxide generation: cytochrome c reduction
Method: Peripheral blood leukocyte concentrates were donated by the Ulsan Red Cross Blood Center (Ulsan, Korea). Human neutrophils were isolated according to the standard procedures of dextran sedimentation, hypotonic lysis of erythrocytes, and a lymphocyte separation medium gradient as described above (9). The isolated human neutrophils were then used promptly.
The activity of the peptides, WKYMVm, peptides of SEQ ID NOs: 1 to 24, and wkymvm on superoxide generation in human neutrophils was measured. Superoxide anion generation was quantified by measuring reduction of cytochrome c using a microtiter 96-well plate ELISA reader (Bio-Tekinstruments, EL312e, Winooski, Vt.) as described (14). The human neutrophils (1×10^6 cells/100 μl of RPMI 1640 medium per well of a 96-well plate) were preincubated with 50 μM cytochrome c at 37° C. for 1 min and then incubated with the indicated concentrations of peptides. The superoxide generation was measured as a change in light absorption at 550 nm over 5 minutes at 1 min intervals. From at least four independent experiments, peptides with active amino acids at each position were chosen.

EL4, lymphoma cells = test: Tumor growth in EL4-injected C57/BL6 mice; assay type: in vivo; details: EL4 2×10^5 cells/mouse s.c.
Method: as §1
To confirm the antitumor effect of WRYMVm, another tumor model, EL4, lymphoma cells was tested. In order to form the tumor mass of EL4, EL4 (2×10^5 cells/mouse) were injected s.c to C57/BL6 mice. […] Overall, it appears obvious that WRYMVm has a tumor growth-suppressing effect in mice model.

FPRL1 [5] = target: T2, FPRL1; test: [Ca2+]i increase in FPRL1-expressing RBL-2H3 cells (fura-2); assay type: cell-based
Method: […] The level of [Ca^2+]i was determined fluorometrically by Grynkiewicz's method using fura-2/AM (15). Briefly, prepared cells were incubated with 3 μM fura-2/AM at 37° C. for 50 min in a fresh serum-free RPMI 1640 medium under continuous stirring. 2×10^6 cells were aliquoted for each assay in Ca^2+-free Locke's solution (154 mM NaCl, 5.6 mM KCl, 1.2 mM MgCl2, 5 mM HEPES, pH 7.3, 10 mM glucose, and 0.2 mM EGTA). Fluorescence changes at the dual excitation wavelengths of 340 nm and 380 nm and the emission wavelength of 500 nm were measured, and the calibrated fluorescence ratio was translated into [Ca^2+]i. The peak level of the increased [Ca^2+]i was monitored.
[…] The level of [Ca^2+]i was determined by the same procedures as above. The peak level of the increased [Ca^2+]i was monitored.

5′-TCGTCGTTTTGTCGTTTTGTCGTT-3′ [CpG ODN, reference compound]
effect on tumor growth (CT26, colon carcinoma; 100 μg/mouse i.p.): didn't show any effect on tumor growth | survival (tumor; survival rate, FIG. 12B): failed to prevent death

CC(=O)OCOC(=O)CN(CC(=O)OCOC(C)=O)c1ccccc1OCCOc1ccccc1N(CC(=O)OCOC(C)=O)CC(=O)OCOC(C)=O [BAPTA/AM]
effect on WKYMVm-induced granule secretion (FPR [1]): almost completely inhibited WKYMVm-induced granule secretion | effect of inhibitor pretreatment on WKYMVm-induced ERKs activation (FPR [2]): could not effect WKYMVm-induced ERK activation | effect on WKYMVm-induced granule secretion (FPRL1 [3]): almost completely inhibited WKYMVm-induced granule secretion | effect of inhibitor pretreatment on WKYMVm-induced ERKs activation (FPRL1 [4]): could not effect WKYMVm-induced ERK activation

CSCC[C@H](NC(=O)[C@H](Cc1ccc(O)cc1)NC(=O)[C@H](CCCNC(=N)N)NC(=O)[C@@H](N)Cc1c[nH]c2ccccc12)C(=O)N[C@H](C(=O)N[C@H](CCSC)C(N)=O)C(C)C [WRYMVm-NH2, Trp-Arg-Tyr-Met-Val-D-Met-NH2] (H-WRYMV[dM]-NH2; N-terminus assumed)
superoxide generating activity (human neutrophils; 100 nM of peptides): stimulated superoxide generation | O^2− (nmol/10^6 cells), superoxide generation (human neutrophils; peptide 100 nM): 47.1 ± 11.23 nmol/10^6 cells | O^2− (nmol/10^6 cells), superoxide generation (human neutrophils; peptide 10 μM): 38.2 ± 6.54 nmol/10^6 cells | tumor mass suppression (EL4, lymphoma cells): able to suppress tumor mass of EL4 | [Ca^2+]i increasing activity (FPRL1 [5]): higher affinity to FPRL1 | EC50 (FPRL1 [5]; fura-2 loaded, read-out: EC50 (nM), intracellular calcium increase): 0.12 ± 0.01 nM | tumor suppression (CT26, colon carcinoma; 0.1 μg/mouse, compared with 0.25 and 1 μg/mouse): highest effectiveness in the tumor suppression | tumor suppression (CT26, colon carcinoma; 1 μg/mouse): the tumor suppressing effect was lowered | tumor growth in CT26-injected mice (figure legend) (CT26, colon carcinoma; FIGS. 9A and 9B): attenuates tumor growth | tumor growth suppression / antitumor activity (tumor; vincristine i.p. 2 μg/mouse 8 hours prior to peptide injection): ability to suppress tumor growth
